Assay results published in US11401264B2, “Heterocyclic compound” (Orizuru Therapeutics, Inc., priority 2018, dated 2022).

Tested on: cardiomyocytes from human iPS cell lines 409B2
Assay: Experimental Example 4: membrane potential analysis (FluoVolt), beats per minute
Type: cell-based
Details: treated from 25th day, measured on 28th day; n = 3; DMSO control 70.7
Experimental: For analysis of electrophysiological function of cardiomyocytes, humans iPS cell lines 409B2 (prepared from episomal vector (pCXLE-hOCT3/4-shp53-F, pCXLE-hSK, pCXLE-hUL) using HDF1388 purchased from Cell Applications, Inc (reference literature; Okita et al., Nat Methods. 8(5):409-12. (2011))) were used.
The maintenance culture of the above-mentioned iPS cell lines was carried out by a conventional method (Takahashi K, et al. Cell. 131: 861-72, 2007 and Nakagawa M, et al. Nat Biotechnol. 26: 101-6, 2008).
For differentiation induction into cardiomyocytes, the iPS cell lines were treated with CTK solution (ReproCELL) for 2 minutes, the solution was removed, and then the iPS cell lines were treated with Accumax (Innovative Cell Technologies) for 5 minutes, and the cells were dissociated into the single cell by pipetting. The cells were collected by centrifugation (1,000 rpm, 5 min), and seeded on low attachment 96 well dish (Corning) by 5000 cells/70 μL/well, and cultured in a medium prepared by adding 1% L-glutamine, transferrin 150 μg/mL, ascorbic acid 50 μg/mL (Sigma), monothioglycerol 4×10^−4 M, 10 μM Rock inhibitor (Y-27632), 2 ng/mL BMP4 (R&D) and 0.5% Matrigel (Growth Factor Reduced) to StemPro-34 SFM (ThermoFisher) at 37° C., under 5% oxygen condition to form embryoid bodies (0 day). […]

With `O=C1c2ccc(N3CCOCC3)cc2CN1c1ccc2[nH]c(-c3ccc(Br)cc3)nc2c1` [Example 8, 2-(2-(4-bromophenyl)-1H-benzimidazol-5-yl)-5-(morpholin-4-yl)isoindolin-1-one] as the compound, how does the “beats (mean)” value read?
Its value is 32.0 beats per minute.
